For this experiment, the system named is paternal Ube3a allele in brain. The experiment can be described thus: Intracerebroventricular delivery, paternal Ube3a in brain. Type of experiment: in vivo, mouse. On the procedure: In order to unsilence paternal Ube3a in vivo with an emphasis on brain, I.C.V. with osmotic minipump was performed. […] Paternal Ube3a-YFP mice were anesthetized with Ketamine/Xylazine (120 mg/kg; 9 mg/kg) and positioned in a stereotaxic head frame. The scalp is shaved and cut, and the skull exposed. The local anesthetic (Bupivacaine, 2.5 mg/ml) is applied on the top of skull and mineral oil is applied on the eyes of the mice. Acetone is applied on the skull to remove any lipid tissues on the skull as well as to dry the skull surface for optimal adhesion. Next, a cannula (Brain Infusion Kit 1, DURECT Corporation) is positioned into a lateral ventricle at the following coordinates (−0.3 mm A/P, +/−1.0 mm M/L, −3.0 mm D/V). The free end of the cannula is connected to an Alzet osmotic minipump via a 2.5-cm-long piece of polyethylene (PE) tubing (cat. no. 0007750, DURECT Corporation). […] The filled pumps are incubated in sterile saline at 37° C. for at least 4 to 6 hours for priming before being implanted under the dorsal skin of the mouse's back. A needle driver is used to create a subcutaneous pocket in the scapula region to accommodate filled pumps. The cannula base and the attached piece of PE tubing are fixed to the skull with loctite cyanoacrylic. The incision site is closed with prolene suture. During and after surgery, mice are placed on a heating pad. Body weight of mice is recorded daily to assess mouse health. Seven days following minipump implantation, mice are sacrificed following pentobarbital overdose (150 mg/kg, I.P.) and brains are removed for immunofluorescence staining or Western blot analysis.
For immunocytochemistry in brain tissues, mice were perfused with 4% PFA in 0.1M PBS, postfixed overnight, and cryoprotected with 20% sucrose in 0.1M phosphate buffer (PB), pH=7.4 for two days. 60 μm sections were collected and permeabilized with 0.3% Triton X-100 in 0.1M PB for 30 min, and blocked by 5% goat serum for 1 hr. Sections were incubated with rabbit polyclonal antibody to GFP (1:1000, Novus Biologicals, NB600-308) at 4° C. overnight and then incubated with Alexa Fluor 488 goat antibody to rabbit IgG and DAPI for 2 hr at room temperature. Images were acquired using a Zeiss LSM 510 and 710 confocal microscopes.
For optical intensity measurement in selected brain regions, sections were imaged using a Zeiss LSM 510 confocal microscope. With custom macros created using ImageJ software^34, optical intensity of UBE3A-YFP was measured in different regions of hippocampus and striatum from vehicle- and topotecan-treated mice. Image intensity levels were normalized to background intensities from appropriate regions in vehicle-treated mice. Brain sections between Bregma −1.22 mm and −2.06 mm were chosen for analysis (n=5 sections/mouse for hippocampus and n=3 to 5 sections/mouse for striatum).
Mice with paternal Ube3a-YFP (Ube3a^m+/pYFP) were anesthetized with ketamine/xylazine (120 mg/kg; 9 mg/kg) and positioned in a stereotaxic apparatus. The scalp was shaved and cut, and the skull exposed. The local anesthetic (bupivacaine, 2.5 mg/ml) was applied to the skull, and mineral oil was applied to protect the eyes of the mice. Acetone was applied on the skull to remove any lipid tissues on the skull as well as to dry the skull surface for optimal adhesion. Next, a cannula (Brain Infusion Kit 1, DURECT Corporation) was positioned into a lateral ventricle at the following coordinates (−0.3 mm A/P, +1.0 mm M/L, −2.5 mm DN), as described^40. The free end of the cannula was connected to a mini-osmotic pump (Alzet, Model 2001 or 2002) via a 2.5 cm piece of polyethylene (PE) tubing (DURECT Corporation). […] The filled pumps were incubated in sterile saline at 37° C. for at least 4 hr before being implanted under the dorsal skin of the mouse's back. The cannula base and the attached piece of PE tubing were fixed to the skull with Loctite cyanoacrylic 454. The incision site was closed with prolene suture. […]

Consider `CCc1c2c(nc3ccc(OC(=O)N4CCC(N5CCCCC5)CC4)cc13)-c1cc3c(c(=O)n1C2)COC(=O)[C@]3(O)CC` [Irinotecan], for which, under “i.c.v.”, the “Ube3a levels in Angelman syndrome model mice” value is given as “significantly increased Ube3a levels”.

With `CC[C@@]1(O)C(=O)OCc2c1cc1n(c2=O)Cc2cc3c(CN(C)C)c(O)ccc3nc2-1` [Topotecan], under “i.c.v. 3.74 μg/h for two weeks”, the “mice with robust unsilencing in cerebral cortex near the infused ventricle” value was “two of five mice”; the “unsilencing of paternal Ube3a, cerebellum” value was “no effect in the cerebellum”; the “unsilencing of paternal Ube3a, contralateral (non-infused) hemisphere” value is on record as “only a modest effect”. Moreover, under “i.c.v. 3.74 μg/h for two weeks, mini-osmotic pump”, the “unsilencing of paternal Ube3a, infused hemisphere” value is “unsilenced paternal Ube3a in the hippocampus, striatum, and cerebral cortex of the infused hemisphere”. The “unsilencing of paternal Ube3a, cerebellar Purkinje neurons” value (i.c.v. 21.6 μg/h for five days) is listed as “did unsilence the paternal allele of Ube3a in Purkinje neurons of the cerebellum”. Further, under “i.c.v. osmotic minipump, one week”, the “paternal Ube3a-YFP protein in brain after ICV infusion (Example 3)” value was “increased paternal Ube3a-YFP protein levels throughout the brain”.

The values are drawn from US10301630B2, “Methods and compositions for unsilencing imprinted genes” (The University of North Carolina at Chapel Hill, priority 2010, dated 2019).
